{"source": "paper PMC4965013", "about": "“Open Source Drug Discovery with the Malaria Box Compound Collection for Neglected Diseases and Beyond” (PLoS Pathogens, 2016)", "key": {"[1]": {"test_system": "P. falciparum M1 aminopeptidase", "set-up": "method as in ref [23] (a number printed in a supplementary file, which may have a reference list of its own: not looked up in the article's list)", "conditions": "ref [23]; cited from earlier work"}, "P. falciparum": {"test_system": "P. falciparum", "assay": "EC50 listed in S2 Table Metabolomics (used to set the concentration tested)", "type": "cell-based", "conditions": "Plasmodium falciparum; EC50 used for Factor_XEC50 in metabolomics; read-out: EC50_nM"}, "[2]": {"test_system": "P. falciparum 3D7 trophozoites", "assay": "Metabolomic fingerprint profiling LC-MS", "type": "cell-based, Plasmodium falciparum", "set-up": "UDP-D-glucose / ADP-D-glucose: unit not given here"}, "[3]": {"test_system": "P. falciparum M17 aminopeptidase", "set-up": "method as in ref [23] (a number printed in a supplementary file, which may have a reference list of its own: not looked up in the article's list)", "conditions": "ref [23]; cited from earlier work"}, "PfPMT": {"biological_target": "PfPMT (Plasmodium falciparum, UniProt Q8IDQ9)", "sequence (Q8IDQ9 whole entry)": "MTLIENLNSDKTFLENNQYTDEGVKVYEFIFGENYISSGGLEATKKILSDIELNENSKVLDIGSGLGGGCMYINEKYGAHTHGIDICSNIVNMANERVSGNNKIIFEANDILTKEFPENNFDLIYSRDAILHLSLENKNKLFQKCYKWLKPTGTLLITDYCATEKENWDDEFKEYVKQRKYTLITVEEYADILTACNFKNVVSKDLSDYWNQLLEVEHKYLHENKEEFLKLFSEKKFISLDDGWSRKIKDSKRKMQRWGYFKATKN", "assay": "PfPMT gene replacement yeast growth", "conditions": "100µM"}, "PfMTIP-MyoA": {"biological_target": "T1, PfMTIP-MyoA (Plasmodium falciparum, UniProt Q8I4W8)", "T1 construct": "made in house; host or cells: E. coli BL21 DE3 (peptide)", "T1 sequence (Q8I4W8 entry or part of it)": "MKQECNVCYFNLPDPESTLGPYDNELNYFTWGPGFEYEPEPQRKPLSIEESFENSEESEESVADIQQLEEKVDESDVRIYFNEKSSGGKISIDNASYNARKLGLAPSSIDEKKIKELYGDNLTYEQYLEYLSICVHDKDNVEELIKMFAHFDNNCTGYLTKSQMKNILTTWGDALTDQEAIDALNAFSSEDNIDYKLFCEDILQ", "assay": "SPR MTIP-MyoA PPI", "type": "binding, P. falciparum", "method": "Atg8-Atg3, Aldolase-TRAP, and Aldolase-MTRAP, MTIP-MyoA, GAP50-FactorH protein-protein interaction (PPI) inhibitor and Surface Plasmon Resonance screening to identify protein-protein interaction inhibitors, Bosch group (Atg8-Atg3 interactions are published in ref [38], rest are not or as noted below). In a primary screen, the Malaria Box compounds were screened at 5 µM final concentration in 1x PBS supplemented with 0.01% (v/v) P20 and 1% (v/v) DMSO using a Biacore 3000 instrument. While one protein was covalently attached to the chip surface via amine coupling, the analyte was passed over the chip in the presence and absence of Malaria Box compounds. Every 12th injection a positive control was passed over the chip to ensure constant binding of the partner protein during the duration of the experiment. Malaria Box compounds resulting in more than 25% decrease in binding of the two proteins to each other were further considered in a dose-response screen ranging from 50 µM to 200 nM. Similar to the primary screen, a positive control, consisting of the protein partner alone in the absence of small molecule compounds, was passed over the flow cells to ensure that the chip surface had not decayed over the course of the experiment. All SPR interaction studies were performed as previously described. […]"}, "[4]": {"test_system": "PfCDPK1, PfPK6, PfCK2, PfGSK3, PfCLK1, Pfmap2, PfPK7, PfNek2, PfNek4, FIKK4.2, FIKK10.2, PfCK1, PfPK5", "assay": "Thermal Shift Assay on recombinant Pf kinases", "type": "binding, P. falciparum", "conditions": "2 µM kinase, 5 molar excess of compound"}, "[5]": {"conditions": "metabolite level change after treatment"}}}
{"smiles": "c1ccc(Cn2c(N=Nc3c(Nc4ccccc4)ccc4ccccc34)nc3ccccc32)cc1", "note": "[MMV666023]", "values": [{"measurement": "inhibition of M1 in words", "setting": "[1]", "value": "moderate competitive inhibitors"}, {"measurement": "EC50", "setting": "P. falciparum", "value": 36.8, "unit": "nM"}, {"measurement": "Acetyllysine", "setting": "[2]; S2 Table Metabolomics, metabolite Acetyllysine", "value": 0.5853}, {"measurement": "N-acetyl-L-ornithine", "setting": "[2]; S2 Table Metabolomics, metabolite N-acetyl-L-ornithine", "value": 0.306}, {"measurement": "N-carbamoyl-L-aspartate", "setting": "[2]; S2 Table Metabolomics, metabolite N-carbamoyl-L-aspartate", "value": 1.052}, {"measurement": "NADPH", "setting": "[2]; S2 Table Metabolomics, metabolite NADPH", "value": -0.03386}, {"measurement": "dAMP", "setting": "[2]; S2 Table Metabolomics, metabolite dAMP", "value": 0.6013}, {"measurement": "dCMP", "setting": "[2]; S2 Table Metabolomics, metabolite dCMP", "value": -0.4205}, {"measurement": "dTDP", "setting": "[2]; S2 Table Metabolomics, metabolite dTDP", "value": 0.3507}, {"measurement": "dTMP", "setting": "[2]; S2 Table Metabolomics, metabolite dTMP", "value": 0.8714}, {"measurement": "dTTP", "setting": "[2]; S2 Table Metabolomics, metabolite dTTP", "value": -0.2342}, {"measurement": "dihydroorotate", "setting": "[2]; S2 Table Metabolomics, metabolite dihydroorotate", "value": 1.31}, {"measurement": "orotate", "setting": "[2]; S2 Table Metabolomics, metabolite orotate", "value": -0.6227}, {"measurement": "DLH", "setting": "[2]; S2 Table Metabolomics, peptide DLH", "value": -0.403}, {"measurement": "DLS/SDL/SID", "setting": "[2]; S2 Table Metabolomics, peptide DLS/SDL/SID", "value": -0.4178}, {"measurement": "PD", "setting": "[2]; S2 Table Metabolomics, peptide PD", "value": 0.5075}, {"measurement": "PEE", "setting": "[2]; S2 Table Metabolomics, peptide PEE", "value": 0.08891}, {"measurement": "PVNF", "setting": "[2]; S2 Table Metabolomics, peptide PVNF", "value": -0.6731}, {"measurement": "3-phosphoglycerate", "setting": "[2]; metabolite 3-phosphoglycerate, S2 Table Metabolomics", "value": 0.03204}, {"measurement": "ADP-D-glucose", "setting": "[2]; metabolite ADP-D-glucose, S2 Table Metabolomics", "value": -0.0135}, {"measurement": "ATP", "setting": "[2]; metabolite ATP, S2 Table Metabolomics", "value": -0.2499}, {"measurement": "CDP", "setting": "[2]; metabolite CDP, S2 Table Metabolomics, change in metabolite level after compound treatment", "value": 0.1136}, {"measurement": "D-sedoheptulose-1/7-phosphate", "setting": "[2]; metabolite D-sedoheptulose-1/7-phosphate, S2 Table Metabolomics, change in metabolite level after compound treatment", "value": 0.2353}, {"measurement": "FAD", "setting": "[2]; metabolite FAD, S2 Table Metabolomics", "value": 0.06401}, {"measurement": "GMP", "setting": "[2]; metabolite GMP, S2 Table Metabolomics, change in metabolite level after compound treatment", "value": -0.6431}, {"measurement": "NAD+", "setting": "[2]; metabolite NAD+, S2 Table Metabolomics", "value": 0.6404}, {"measurement": "NADP+", "setting": "[2]; metabolite NADP+, S2 Table Metabolomics", "value": -0.009365}, {"measurement": "Octoluse Bisphosphate", "setting": "[2]; metabolite Octoluse Bisphosphate, S2 Table Metabolomics, change in metabolite level after compound treatment", "value": -0.1419}, {"measurement": "Pyroglutamic acid", "setting": "[2]; metabolite Pyroglutamic acid, S2 Table Metabolomics", "value": -0.07348}, {"measurement": "UDP-D-glucose", "setting": "[2]; metabolite UDP-D-glucose, S2 Table Metabolomics", "value": 0.05216}, {"measurement": "UDP-D-glucuronate", "setting": "[2]; metabolite UDP-D-glucuronate, S2 Table Metabolomics", "value": -0.02666}, {"measurement": "UDP-N-acetyl-glucosamine", "setting": "[2]; metabolite UDP-N-acetyl-glucosamine, S2 Table Metabolomics", "value": 0.05509}, {"measurement": "UDP", "setting": "[2]; metabolite UDP, S2 Table Metabolomics, change in metabolite level after compound treatment", "value": 0.01697}, {"measurement": "UMP", "setting": "[2]; metabolite UMP, S2 Table Metabolomics, change in metabolite level after compound treatment", "value": -0.4292}, {"measurement": "UTP", "setting": "[2]; metabolite UTP, S2 Table Metabolomics, change in metabolite level after compound treatment", "value": -0.424}, {"measurement": "a-ketoglutarate", "setting": "[2]; metabolite a-ketoglutarate, S2 Table Metabolomics", "value": -0.06383}, {"measurement": "citrate/isocitrate", "setting": "[2]; metabolite citrate/isocitrate, S2 Table Metabolomics, change in metabolite level after compound treatment", "value": 0.04119}, {"measurement": "cytidine", "setting": "[2]; metabolite cytidine, S2 Table Metabolomics", "value": 0.02473}, {"measurement": "dATP", "setting": "[2]; metabolite dATP, S2 Table Metabolomics", "value": 0.1105}, {"measurement": "dGMP/AMP", "setting": "[2]; metabolite dGMP/AMP, S2 Table Metabolomics, change in metabolite level after compound treatment", "value": 0.2165}, {"measurement": "fumarate", "setting": "[2]; metabolite fumarate, S2 Table Metabolomics, change in metabolite level after compound treatment", "value": 0.9246}, {"measurement": "glucose-1/6-phosphate", "setting": "[2]; metabolite glucose-1/6-phosphate, S2 Table Metabolomics, change in metabolite level after compound treatment", "value": -0.4138}, {"measurement": "glycerate", "setting": "[2]; metabolite glycerate, S2 Table Metabolomics, change in metabolite level after compound treatment", "value": 0.03697}, {"measurement": "guanine", "setting": "[2]; metabolite guanine, S2 Table Metabolomics, change in metabolite level after compound treatment", "value": -0.03399}, {"measurement": "guanosine", "setting": "[2]; metabolite guanosine, S2 Table Metabolomics, change in metabolite level after compound treatment", "value": -0.2347}, {"measurement": "hypoxanthine", "setting": "[2]; metabolite hypoxanthine, S2 Table Metabolomics", "value": -0.04929}, {"measurement": "indole", "setting": "[2]; metabolite indole, S2 Table Metabolomics", "value": 0.02614}, {"measurement": "inosine", "setting": "[2]; metabolite inosine, S2 Table Metabolomics, change in metabolite level after compound treatment", "value": -0.0248}, {"measurement": "2_3-Diphosphoglyceric acid", "setting": "[2]; [5]", "value": 0.0759}, {"measurement": "4-phosphopantothenate", "setting": "[2]; [5]", "value": 0.08574}, {"measurement": "6-phospho-D-gluconate", "setting": "[2]; [5]", "value": 0.115}, {"measurement": "FMN", "setting": "[2]; [5]", "value": -0.1537}, {"measurement": "IMP", "setting": "[2]; [5]", "value": 0.4441}, {"measurement": "Pyrophosphate", "setting": "[2]; [5]", "value": 0.2082}, {"measurement": "Sedoheptoluse bisphosphate", "setting": "[2]; [5]", "value": 0.1996}, {"measurement": "cyclic-AMP", "setting": "[2]; [5]", "value": 0.01699}, {"measurement": "glutathione disulfide", "setting": "[2]; [5]", "value": 0.1273}, {"measurement": "lactate", "setting": "[2]; [5]", "value": -0.7178}, {"measurement": "myo-inositol", "setting": "[2]; [5]", "value": -0.07069}, {"measurement": "nicotinate", "setting": "[2]; metabolite nicotinate, S2 Table Metabolomics", "value": 0.08369}, {"measurement": "ornithine", "setting": "[2]; metabolite ornithine, S2 Table Metabolomics", "value": 0.4536}, {"measurement": "phosphoenolpyruvate", "setting": "[2]; metabolite phosphoenolpyruvate, S2 Table Metabolomics", "value": -0.0645}, {"measurement": "pyruvate", "setting": "[2]; metabolite pyruvate, S2 Table Metabolomics, change in metabolite level after compound treatment", "value": -0.159}, {"measurement": "ribose-phosphate", "setting": "[2]; metabolite ribose-phosphate, S2 Table Metabolomics", "value": -0.0332}, {"measurement": "sarcosine/alanine", "setting": "[2]; metabolite sarcosine/alanine, S2 Table Metabolomics, change in metabolite level after compound treatment", "value": -0.02978}, {"measurement": "sn-glycerol-3-phosphate", "setting": "[2]; metabolite sn-glycerol-3-phosphate, S2 Table Metabolomics", "value": -0.2072}, {"measurement": "succinate/methylmalonic acid", "setting": "[2]; metabolite succinate/methylmalonic acid, S2 Table Metabolomics, change in metabolite level after compound treatment", "value": 0.009689}, {"measurement": "uridine", "setting": "[2]; metabolite uridine, S2 Table Metabolomics, change in metabolite level after compound treatment", "value": -0.07701}, {"measurement": "xanthosine", "setting": "[2]; metabolite xanthosine, S2 Table Metabolomics, change in metabolite level after compound treatment", "value": -0.07995}, {"measurement": "inhibition of M17 in words", "setting": "[3]", "value": "moderate competitive inhibitors"}]}
{"smiles": "O=C(NC(c1ccccc1)c1ccc2cccnc2c1O)c1ccccc1", "note": "(stereo not drawn) [MMV666080]", "values": [{"measurement": "candidate inhibitors of PfPMT activity (yeast functional assay)", "setting": "PfPMT", "value": "candidate inhibitors of PfPMT activity"}, {"measurement": "identified against the PfMTIP-MyoA interaction", "setting": "PfMTIP-MyoA", "value": "identified against the PfMTIP-MyoA interaction"}]}
{"smiles": "Cc1cccc(-n2ncc3c(=O)[nH]c(-n4nc(C)cc4NC(=O)c4cc5ccccc5o4)nc32)c1", "note": "[MMV403679]", "values": [{"measurement": "thermal shift (ΔTm)", "setting": "[4]", "value": "approximately 2 °C"}]}
{"smiles": "O=C(Nc1ccc(Cl)c(Cl)c1)Nc1ccc(Cl)c(Cl)c1", "note": "[MMV665852]", "values": [{"measurement": "thermal shift (ΔTm)", "setting": "[4]", "value": "approximately 2 °C"}]}
{"smiles": "Cc1ccc(CN2CCC(C(=O)Nc3ccc(-c4cc5ccccc5[nH]4)cc3)CC2)o1", "note": "[MMV666071]", "values": [{"measurement": "identified against the PfMTIP-MyoA interaction", "setting": "PfMTIP-MyoA", "value": "identified against the PfMTIP-MyoA interaction"}]}
